Results on twelve compounds are retold here after patent publication US20020065309A1, “Novel Bicyclic and tricyclic pyrrolidine derivatives as GnRH antagonists” (priority 1999, published 2002).

The test deals with T1, human GnRH receptor (Homo sapiens, UniProt P30968).
T1 construct: expressed in transfected cells; host or cells: COS-1 cells infected with recombinant adenovirus; membrane preparation
T1 sequence (P30968 1-328): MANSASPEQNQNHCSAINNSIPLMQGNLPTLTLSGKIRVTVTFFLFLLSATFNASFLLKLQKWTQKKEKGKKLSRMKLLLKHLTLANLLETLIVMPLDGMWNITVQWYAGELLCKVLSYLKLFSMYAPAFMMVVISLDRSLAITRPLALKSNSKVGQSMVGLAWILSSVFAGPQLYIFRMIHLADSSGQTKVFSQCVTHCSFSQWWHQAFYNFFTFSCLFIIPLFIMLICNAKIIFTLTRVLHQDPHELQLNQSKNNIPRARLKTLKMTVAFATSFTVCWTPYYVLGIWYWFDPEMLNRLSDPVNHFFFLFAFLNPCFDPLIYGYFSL
Kind of test: GnRH radioligand binding assay. To be noted: 125I-LHRH-D-Trp6 radioligand; COS-1 cell membranes containing human GnRH receptors; 2 h at 4 C. On the procedure: COS-1 cells infected with a recombinant adenovirus directing the expression of the human GnRH receptor were harvested 48 hours after virus infection using cell dissociation buffer from Gibco-BRL and pelleted by centrifugation (5 min., 1100 rpm in RC3B, […]). The pellet was suspended in 20 ml ice cold binding buffer (25 mM Tris HCl, pH 7.4, 0.1% sodium azide, 0.1% BSA) and homogenized using polytron (Tempest Virtishear, Virtis).
The homogenate was centrifuged for 12 min. at 14,500 rpm in a RC5B and the supernatant discarded. The pellet was re-homogenized in 20 ml of binding buffer and centrifuged. The final pellet was resuspended in a small volume of binding buffer such that the final protein concentration was approximately 1.5 mg/ml (according to Pierce-BCA Protein kit). Aliquots of membrane preparation could then be stored frozen at −70 C without significant loss of binding activity for future use.
Samples were diluted in binding buffer (25 mM Tris pH 7.5, 10 MM MgCl2, 0.01% NaN3, 0.1% BSA) for the assay. The radioligand used was ^125I-LHRH-D-TrP6, approximately 50-70,000 counts/25 μl Non-specific binding was determined using LHRH-D-TrP6 at a final concentration of 1 µM. Addition of GnRH membranes to the assay was optimized to give a signal-to-noise ratio of 10:1.
Twenty-five μl sample (4× final concentration), 50 μl membranes and 25 μl radioligand were incubated in a V-bottom 96-well plate with shaking for 2 h at 4 C. The incubated mixture was then filtered onto a Whatman GF/B membrane pre-treated with 0.1% poly(ethylene imine) using a Packard Cell Harvester. The filter was dried for approximately 10 min. at 37 C. Forty μl Microscint 20 was added and the radioactivity remaining on the filter was counted using a Topcount γ-counter.
Binding inhibition was calculated from the measured values using a concentration series of each test compound in the conventional manner.
Compound `COc1cc(CN2C[C@@H]3C[C@@H](c4ccc(N(C)C)c5ccccc45)N4C(=O)N(CCN5CCOCC5)C(=O)[C@@]34C2)c(Br)c(Br)c1O` (relative stereo) [AF21278] came in with an IC50 of 280 ± 170 nM.

Regarding `COc1ccc(CN2C[C@H]3C[C@H](c4ccc(N(C)C)c5ccccc45)N4C(=O)N(CCN5CCOCC5)C(=O)[C@]34C2)cc1NC(C)=O` (relative stereo) [Compound 36, N-{5-[((trans)-5-[4-(dimethylamino)-1-naphthyl]-2-(2-morpholin-4-ylethyl)-1,3-dioxohexahydro-1H-pyrrolo[3′,4′:2,3]pyrrolo[1,2-c]imidazol-8(9H)-yl)methyl]-2-methoxyphenyl}acetamide], the IC50 is ~21 nM.

`COc1cc(Br)c(CN2C[C@@H]3C[C@@H](c4ccc(N(C)C)c5ccccc45)N4C(=O)N(CCN5CCOCC5)C(=O)[C@@]34C2)cc1O` (relative stereo) [AF21813]: the IC50 is ~80 nM.

`CCOc1cc(CN2C[C@@H]3C[C@@H](c4ccc(N(C)C)c5ccccc45)N4C(=O)N(CCN5CCOCC5)C(=O)[C@@]34C2)ccc1O` (relative stereo) [AF20660] returned an IC50 of 800 ± 110 nM.

Consider `COc1ccc(CN2C[C@H]3C[C@H](c4ccnc5ccccc45)N4C(=O)N(CCN5CCOCC5)C(=O)[C@]34C2)cc1O` (relative stereo) [Compound 73, (trans)-8-(3-hydroxy-4-methoxybenzyl)-2-(2-morpholin-4-ylethyl)-5-quinolin-4-ylhexahydro-1H-pyrrolo [3′, 4′:2,3]pyrrolo[1,2-c]imidazole-1,3(2H)-dione], for which the IC50 was ~1500 nM.

Take `COc1ccc(CN2C[C@H]3C[C@H](c4ccc(N)c5ccccc45)N4C(=O)N(CCN5CCOCC5)C(=O)[C@]34C2)cc1O` (relative stereo) [Compound 17, (trans)-5-[4-amino-1-naphthyl]-8-(3-hydroxy-4-methoxybenzyl)-2-(2-morpholin-4-ylethyl)hexahydro-1H-pyrrolo[3′,4′:2,3]pyrrolo[1,2-c]imidazole-1,3(2H)-dione]: the IC50 was ~321 nM.

Consider `COc1ccc(CN2C[C@@H]3C[C@@H](c4ccc(N(C)C)c5ccccc45)N4C(=O)N(CCN5CCOCC5)C(=O)[C@@]34C2)cc1O` (relative stereo) [AF21276], for which the IC50 was 35 ± 6 nM.

`COc1ccc(CN2C[C@@H]3C[C@@H](c4ccc(N(C)C)c5ccccc45)N4C(=O)N(CCc5ccncc5)C(=O)[C@@]34C2)cc1O` (relative stereo) [AF22053]: the IC50 is ~385 nM.

Turning to `COc1ccc(CN2C[C@@H]3C[C@@H](c4ccc(OC)c5ccccc45)N4C(=O)N(CCN5CCOCC5)C(=O)[C@@]34C2)cc1O` (relative stereo) [AF21477], the IC50 was ~612 nM.

For `COc1ccc(CN2C[C@@H]3C[C@@H](c4ccc(N(C)C)c5ccccc45)N4C(=O)N(CCN5CCNCC5)C(=O)[C@@]34C2)cc1O` (relative stereo) [AF22352], the IC50 was ~1500 nM.

As for `COc1ccc(CN2C[C@@H]3C[C@@H](c4ccc(N(C)C)cc4)N4C(=O)N(CCN5CCOCC5)C(=O)[C@@]34C2)cc1O` (relative stereo) [AF21479], the IC50 was ~160 nM.

Consider `O=C1N(CCN2CCOCC2)C(=O)[C@]23CNC[C@H]2C[C@H](c2cnc4ccccc4c2)N13` (relative stereo) [Compound 76, (trans)-2-(2-morpholin-4-ylethyl)-5-quinolin-3-ylhexahydro-1H-pyrrolo [3′,4′:2,3] pyrrolo [1,2-c]imidazole-1,3(2H)-dione], for which the IC50 was ~270 nM.
